# Test results as given in patent publication US8039506B2, “Bicyclic lactam factor VIIa inhibitors useful as anticoagulants” (Bristol-Myers Squibb Company, priority 2006, dated 2011).
# Values joined by “and” are separate entries in the source; they are usually repeats but may differ in a detail not shown here. Equal entries are not always repeated.
# Target: T1, human Factor VIIa (Homo sapiens, UniProt P08709)
# T1 construct: with about 1% of the total amount in the proteolytically active form factor VIIa; purchased Haematologic Technologies (plasma-purified) or Novo Nordisk (recombinant)
# Assay: Factor VIIa assay (hydrolysis of chromogenic substrate, Ki)
# Format: biochemical
# Conditions: several values in one cell = repeat determinations
# T1 sequence (P08709 213-466 limits assumed): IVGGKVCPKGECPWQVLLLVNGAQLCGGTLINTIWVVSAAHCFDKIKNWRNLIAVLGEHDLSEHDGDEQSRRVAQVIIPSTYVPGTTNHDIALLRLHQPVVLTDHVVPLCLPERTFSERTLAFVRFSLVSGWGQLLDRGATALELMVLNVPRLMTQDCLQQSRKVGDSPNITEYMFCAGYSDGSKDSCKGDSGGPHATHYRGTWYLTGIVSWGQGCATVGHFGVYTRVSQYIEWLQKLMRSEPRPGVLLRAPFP
# T1 sequence (P08709 61-212 limits assumed): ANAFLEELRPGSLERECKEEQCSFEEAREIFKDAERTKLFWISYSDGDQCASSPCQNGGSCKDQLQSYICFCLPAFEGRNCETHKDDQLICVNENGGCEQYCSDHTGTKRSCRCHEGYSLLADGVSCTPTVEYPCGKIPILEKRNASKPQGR
# T1 sequence (P13726 33-251 partner limits assumed): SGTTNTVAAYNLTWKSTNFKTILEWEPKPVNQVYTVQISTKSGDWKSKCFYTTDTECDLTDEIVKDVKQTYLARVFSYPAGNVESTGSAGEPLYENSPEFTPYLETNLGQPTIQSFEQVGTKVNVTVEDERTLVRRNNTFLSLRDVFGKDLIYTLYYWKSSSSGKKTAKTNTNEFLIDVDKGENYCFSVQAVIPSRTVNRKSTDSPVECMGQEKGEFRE
row,Ki,Structure (SMILES)
1,> 13000 nM,"COC(=O)Nc1ccc(S(=O)(=O)C(C)C)c([C@H]2CCCN2C(=O)C(Nc2ccc(F)c3c2CNC3=O)c2ccc(OC)c(OC)c2)c1 (single isomer, unassigned) [Example 6]"
2,< 5 nM and 3.5 nM,"COC(=O)Nc1ccc(S(=O)(=O)C2CC2)c([C@H]2CCCN2C(=O)[C@H](Nc2ccc3nc[nH]c(=O)c3c2)c2ccc(F)c(OC)c2)c1 (single isomer, unassigned) [Example 22]"
3,41 nM and 88 nM,"CC[C@H]1CNC(=O)c2cc(NC(C(=O)N3CCC[C@@H]3c3cc(NC(=O)OC)ccc3S(=O)(=O)C(C)C)c3ccc(OC)c(OC)c3)ccc21 (single isomer, unassigned) [Example 18]"
4,60 nM,"COc1cc([C@@H](Nc2ccc3c(c2)C(=O)NC3)C(=O)N2CC[C@H](C(=O)O)[C@@H]2c2ccccc2S(=O)(=O)C2CC2)ccc1F [Example 28, (2R,3S)-2-(2-(cyclopropylsulfonyl)phenyl)-1-((R)-2-(4-fluoro-3-methoxyphenyl)-2-(3-oxoisoindolin-5-ylamino)acetyl)pyrrolidine-3-carboxylic acid]"
